Test results published in paper PMC8949142 (2022).

Key:
[1] = system: G48nop (DNA, aptamer) GCGACCGAAGTGAGGCTCGATCCAAGGTGGACGGGAGGTTGGATTGTGCGTG; assay: biolayer interferometry; details: 100 mM Na+, 5 mM K+, 2 mM Mg2+, 1 mM Ca2+, 20 mM Tris-HCl pH 7.6
[2] = system: G48nop (FAM) (DNA, aptamer) GCGACCGAAGTGAGGCTCGATCCAAGGTGGACGGGAGGTTGGATTGTGCGTG; assay: microscale thermophoresis; details: 100 mM Na+, 5 mM K+, 2 mM Mg2+, 1 mM Ca2+, 20 mM Tris-HCl pH 7.6, 0.02% Tween-20, 25 °C
[3] = system: G48nop (unlabeled) (DNA, aptamer) GCGACCGAAGTGAGGCTCGATCCAAGGTGGACGGGAGGTTGGATTGTGCGTG; assay: circular dichroism; details: 100 mM Na+, 5 mM K+, 2 mM Mg2+, 1 mM Ca2+; 20 mM Tris-HCl pH 7.6, 20 °C; 5 µM aptamer; qualitative
[4] = system: G48 (DNA, aptamer) GGGAGGACGAAGCGGAACGCGACCGAAGTGAGGCTCGATCCAAGGTGGACGGGAGGTTGGATTGTGCGTGCAGAAGACACGCCCGACA; assay: biolayer interferometry; details: 100 mM Na+, 5 mM K+, 2 mM Mg2+, 1 mM Ca2+; 20 mM Tris-HCl pH 7.6; 1:1 fit
[5] = system: G13 (DNA, aptamer) GGGAGGACGAAGCGGAACCCATGGGGTGTGAGGCTCGATCAGGAGGTAAAAGCAGCGCGTCGTCAGTGTGCAGAAGACACGCCCGACA; assay: biolayer interferometry; details: 100 mM Na+, 5 mM K+, 2 mM Mg2+, 1 mM Ca2+; 20 mM Tris-HCl pH 7.6; 1:1 fit
[6] = system: G16 (DNA, aptamer) GGGAGGACGAAGCGGAACCACCTTGAGATGAGGCTCGATCACCGGTGGGTATAGTGGTCGCGATGTATACCAGAAGACACGCCCGACA; assay: biolayer interferometry; details: 100 mM Na+, 5 mM K+, 2 mM Mg2+, 1 mM Ca2+; 20 mM Tris-HCl pH 7.6; 1:1 fit
[7] = system: G79 (DNA, aptamer) GGGAGGACGAAGCGGAACGGGGGTGGGTTGAGGCTCGATCATGATAGCGAATTGGACACGATTCGTGTACCAGAAGACACGCCCGACA; assay: biolayer interferometry; details: 100 mM Na+, 5 mM K+, 2 mM Mg2+, 1 mM Ca2+; 20 mM Tris-HCl pH 7.6; 1:1 fit
[8] = system: G29 (DNA, aptamer) GGGAGGACGAAGCGGAACCGTAGGAAAGTGAGGCTCGATCTACCCTTGGATCGATTTGTCAGGTGGGGACCAGAAGACACGCCCGACA; assay: biolayer interferometry; details: 100 mM Na+, 5 mM K+, 2 mM Mg2+, 1 mM Ca2+; 20 mM Tris-HCl pH 7.6; 1:1 fit
[9] = system: G24 (DNA, aptamer) GGGAGGACGAAGCGGAACGGGCGGGATTTGAGGCTCGATCCGACTACGGATACGGCTTGCTTGTATCCGCCAGAAGACACGCCCGACA; assay: biolayer interferometry; details: 100 mM Na+, 5 mM K+, 2 mM Mg2+, 1 mM Ca2+; 20 mM Tris-HCl pH 7.6; 1:1 fit
[10] = system: G48nors (DNA, aptamer) TGAGGCTCGATCCAAGGTGGACGGGAGGTTGGATTGTGCGTG; assay: biolayer interferometry; details: 100 mM Na+, 5 mM K+, 2 mM Mg2+, 1 mM Ca2+; 20 mM Tris-HCl pH 7.6; 1:1 fit
[11] = system: G48norsj (DNA, aptamer) CGATCCAAGGTGGACGGGAGGTTGGATTG; assay: biolayer interferometry; details: 100 mM Na+, 5 mM K+, 2 mM Mg2+, 1 mM Ca2+; 20 mM Tris-HCl pH 7.6; 1:1 fit
[12] = system: random sequence (control) (DNA, single strand) GAGCCTTAGCAGCACTTCACACGATCCACCCTTAAGGCCAACCTTAACACGACCTCAAACACTGCGTAATGACTGTAGTGATGCCTTA; assay: biolayer interferometry; details: 100 mM Na+, 5 mM K+, 2 mM Mg2+, 1 mM Ca2+; 20 mM Tris-HCl pH 7.6; tested at 0.5 µM
[13] = system: control (random) sequence (FAM) (DNA, single strand) GAGCCTTAGCAGCACTTCACACGATCCACCCTTAAGGCCAACCTTAACACGACCTCAAACACTGCGTAATGACTGTAGTGATGCCTTA; assay: microscale thermophoresis; details: 100 mM Na+, 5 mM K+, 2 mM Mg2+, 1 mM Ca2+; 20 mM Tris-HCl pH 7.6, 0.02% Tween-20, 25 °C; GYM-A up to 10,000 nM; not fittable
[14] = system: G48nop (DNA, aptamer) GCGACCGAAGTGAGGCTCGATCCAAGGTGGACGGGAGGTTGGATTGTGCGTG; assay: BLI aptasensor calibration, five-parameter logistic fit; details: 100 mM Na+, 5 mM K+, 2 mM Mg2+, 1 mM Ca2+; 20 mM Tris-HCl pH 7.6; GYM-A 55–14,000 nM; slope exponent -0.7837

binding ([1]; tested up to 1.5 µM)	binding ([2]; NB [sic], highest concentration not stated)	binding [3]	KD [4] [nM]	KD [5]	KD [6] [nM]	KD [7] [nM]	KD [8] [nM]	KD [9] [nM]	KD ([1]; 1:1 fit) [nM]	KD [10] [nM]	KD [11] [nM]	binding [12]	KD [2] [nM]	binding [13]	EC50 [14] [nM]	SMILES
no	no	–	–	–	–	–	–	–	–	–	–	–	–	–	–	C=C1[C@@H](O)[C@@H]2O[C@]3(CC[C@H](/C=C/[C@@H](C)[C@@H]4CC(C)=C[C@@]5(O[C@H](C[C@@](C)(O)C(=O)O)CC[C@H]5O)O4)O3)CC[C@H]2O[C@@H]1[C@@H](O)C[C@H](C)[C@H]1O[C@@]2(CCCCO2)CC[C@H]1C
–	–	yes	288	168,000 nM	495	341	308	859	95.30	354.00	501.00	no	34.50 ± 1.72	no	3316	CC1=C[C@@H](C2=C(C)[C@@H]3/C=C(\C)[C@@H](O)CC[C@@H]4C[C@@H](C)[C@@H](O4)/C(C)=C/CCC4=NCCC[C@@]43CC2)OC1=O
